According to article PMC5903241 (British Journal of Clinical Pharmacology, 2018):
Where “and” joins values, the source holds several entries; their conditions need not be identical. Equal values may be shown once. Read-outs that look alike come from different tables or passages of the source.

How the values were obtained:
[1] = furosemide 40 mg alone, geometric least squares mean
Safety assessments = type: in vivo, healthy subjects; settings: for Pulse rate / Supine diastolic blood pressure / Supine systolic blood pressure: mean ± SD; for eGFR: mean ± standard deviation, baseline 107.8 ± 10.9
[2] = type: in vivo, healthy subjects; settings: mean (SD)
[3] = type: in vivo, healthy subjects; settings: for Tmax / AUC / Cmax: human, plasma, oral; for AUC: AUCtau, steady state; for AUC / Cmax: mean (SD); for Cmax: Cmax,ss; for Estimated geometric mean ratio of AUCtau / Estimated geometric mean ratio of Cmax,ss: sacubitril/valsartan + furosemide vs sacubitril/valsartan alone
[4] = urine, 4 to 8 h after furosemide
[5] = 200 mg, sacubitril/valsartan 200 mg twice daily alone
[6] = sacubitril/valsartan 200 mg twice daily + furosemide 40 mg single dose

Row | Tmax ([3]; 200 mg) [h] | AUC [3, 5] [ng·h/mL] | Cmax [3, 5] [ng/mL] | AUC [3, 6] [ng·h/mL] | Cmax [3, 6] [ng/mL] | Estimated geometric mean ratio of AUCtau [3] | Estimated geometric mean ratio of Cmax,ss [3] | Molecule | Pulse rate (Safety assessments) [bpm] | Supine diastolic blood pressure (Safety assessments) [mmHg] | Supine systolic blood pressure (Safety assessments) [mmHg] | eGFR (Safety assessments) [ml min^–1 1.73 m^–2] | further results
1 | – | – | – | – | – | – | – | NS(=O)(=O)c1cc(C(=O)O)c(NCc2ccco2)cc1Cl [Furosemide, furosemide] | 71.0 ± 9.7 | 71.6 ± 6.1 | 115.5 ± 12.2 | 103.1 ± 12.5 | Ae0–4, amount excreted in urine ([1]; 0 to 4 h): 8.03 mg; Ae0–24, amount excreted in urine ([1]; 0 to 24 h): 12.54 mg; subjects reporting AE back pain (Safety assessments; one subject of 28): 3.6%; subjects reporting AEs (Safety assessments; when treated with furosemide, 28 subjects): Two subjects reported AEs; Urine volume, Volume0–4 ([2]; 0 to 4 h after furosemide): 1640.00 (413.49) ml; Urine volume, Volume0–24 ([2]; 0 to 24 h after furosemide): 3816.07 (533.04) ml; Urine volume, Volume4–8 ([2]; 4 to 8 h after furosemide): 585.36 (204.30) ml; Potassium Ae0–4 ([2]; urine, 0 to 4 h after furosemide): 22.87 (5.60) mmol; Sodium Ae0–4 ([2]; urine, 0 to 4 h after furosemide, listed as Furosemide alone): 128.87 mmol and 128.87 (42.36) mmol; Potassium Ae0–24 ([2]; urine, 0 to 24 h after furosemide): 60.35 (8.08) mmol; Sodium Ae0–24 ([2]; urine, 0 to 24 h after furosemide, listed as Furosemide alone): 198.68 mmol and 198.68 (34.95) mmol; Potassium Ae4–8 [2, 4]: 10.04 (3.74) mmol; Sodium Ae4–8 [2, 4]: 21.57 (12.89) mmol
2 | 0.52 | 2330 | 1740 | 2330 | 1810 | 1.01 | 1.04 | CCOC(=O)[C@H](C)C[C@@H](Cc1ccc(-c2ccccc2)cc1)NC(=O)CCC(=O)O [Sacubitril, sacubitril] | – | – | – | – | –
3 | 2 | 79600 | 11800 | 86100 | 12700 | 1.08 | 1.08 | C[C@H](C[C@@H](Cc1ccc(-c2ccccc2)cc1)NC(=O)CCC(=O)O)C(=O)O [Sacubitrilat, sacubitrilat] | – | – | – | – | –
4 | 1.75 | 18900 | 3860 | 21000 | 4250 | 1.16 | 1.16 | CCCCC(=O)N(Cc1ccc(-c2ccccc2-c2nnn[nH]2)cc1)[C@H](C(=O)O)C(C)C [Valsartan, valsartan] | – | – | – | – | coefficient of variation of pharmacokinetic parameters ([3]; valsartan pharmacokinetic parameters): 35.8%; increase of AUCtau when coadministered with furosemide ([3]; vs sacubitril/valsartan alone): 16%; increase of Cmax,ss when coadministered with furosemide ([3]; vs sacubitril/valsartan alone): 16%
5 | – | – | – | – | – | – | – | sacubitril/valsartan | 71.6 ± 9.9 | 67.5 ± 7.9 | 111.1 ± 10.7 | 107.7 ± 12.5 | subjects reporting AEs diarrhoea, headache and presyncope (each) (Safety assessments; each reported by one subject of 28, sacubitril/valsartan alone): 3.6%
